# Measured values: PMC12557383, “Development of a Potent and Functional In Vivo Peptide Competitive Inhibitor for the Toxin MazF” (Journal of Medicinal Chemistry, 2025)
# Columns and labels:
# Format in all cases: cell-based, Escherichia coli
# [1] = test system: E. coli cells superexpressing MazF; experiment: Glucose uptake assay (2-NBDG, flow cytometry), coexpression with MazF; conditions: cells coexpressing MazF and recombinant SamF, 400 μM 2-NBDG
# Method: This experiment was carried out as described above (“bacterial cell growth assay”). However, 1 h after mazF induction with 1% of L-arabinose, cells were harvested by centrifugation (10 min/4,500 rpm/4 °C). The cell pellet was resuspended in 5 mL of M9 media without glucose or any other carbon source (M9^–glucose). Cells were pelleted again and resuspended in M9^–glucose as above. Ten million cells were removed from this solution in a final volume of 5 mL of M9^–glucose and incubated with 400 μM of the fluorescent glucose analog 2-NDBG (Thermofisher) at 37 °C/300 rpm. Aliquots of 0.5 mL were taken at 1 h intervals for a period of 3 h. To remove the noninternalized 2-NBG dye, cells were centrifuged (10 min/4,500 rpm/4 °C) and the supernatant was removed. After a new wash step with 1 mL of M9^–glucose, the cell pellet was resuspended in 0.5 mL of M9^–glucose. Cells were placed on ice until all samples were collected and then immediately subjected to flow cytometry on a BD FACS Canto II system (BD Biosciences) with an excitation/emission wavelength at 488/530 nm. The percentage of cells labeled with 2-NGDG was calculated relative to the fluorescence of the stainless control with FlowJo software.
# [2] = test system: E. coli cells superexpressing MazF; experiment: Resazurin assay (redox state), coexpression with MazF; conditions: cells coexpressing MazF and recombinant SamF, 1 h MazF expression, 75 μg/mL resazurin
# Method: This experiment was conducted as described above (“bacterial cell growth assay”). However, 1 h after mazF induction with 1% of L-arabinose, approximately 40 millions of cells in 200 μL of LB (with antibiotics, IPTG and L-arabinose) were taken and incubated with 75 μg/mL of resazurin (final concentration). The experiment was performed in a 96-well plate in triplicate. The plate was incubated at 37 °C/70 rpm, and the color development, due to resazurin reduction, was monitored every hour visually and by scanning the dye absorbance between 500–700 nm.
# [3] = test system: E. coli cells expressing MazF; experiment: Antibiotic survival assay (ciprofloxacin), coexpression with MazF; conditions: 4 μg/mL ciprofloxacin, up to 4 h; toxin induced 1 h before antibiotic
# Method: This experiment was conducted as described above (“bacterial growth assay”) until the induction of the toxin. However, 1 h after mazF induction with 0.5% of L-arabinose, approximately two million cells were removed from each culture and diluted with LB (final volume of 10 mL) supplemented with IPTG, L-arabinose, and antibiotics for plasmid maintenance. Here, an aliquot of 1 mL was withdrawn, which represents time zero (before the implementation of antibiotic stress). Cells were then exposed to 4 μg/mL ciprofloxacin and incubated at 37 °C/215 rpm for 4 h. Aliquots of 1 mL were taken at intervals of 1 h and washed three times with LB medium (5,000 rpm/5 min/4 °C) to remove the antibiotic. After the last wash step, the culture medium was removed, and the cell pellet was resuspended in 100 μL of LB medium. 10-fold serial dilutions were made from this solution using LB medium, and 2 μL of each dilution was spotted on solid LB-agar supplemented with antibiotics for the maintenance of plasmids. Plates were incubated at 37 °C for 24 h and photographed. The experiment was repeated at least three times.
# [4] = test system: E. coli cells superexpressing MazF; experiment: Oxygen consumption assay, coexpression with MazF; conditions: cells coexpressing MazF and recombinant SamF; 1 mM IPTG, 1% L-arabinose, 37 °C
# Method: This experiment was conducted as described above (“bacterial growth assay”). However, 90 min after induction of recombinant samF with 1 mM IPTG, an aliquot of 1 mL of a cell suspension containing approximately 2.5 million cells was removed from each culture and placed into the chamber of an Oroboros O2K oxygraph (Bioplast) instrument. After equilibration of the oxygen consumption rate, mazF expression was induced by the addition of 1% of L-arabinose, and the consumption rate and amount of dissolved oxygen was monitored for a period of about 3 h. The experiment was carried out at 37 °C under orbital shaking at 200 rpm and repeated at least three times.
sequence,measurement,setting,value
"MSHLFWAQFDEYF [recombinant SamF, recombinantly expressed SamF ([…]) from pET-24a-samF in E. coli]",Percentage of cells labeled with 2-NBDG,[1]; first hour,64%
same,Percentage of cells labeled with 2-NBDG,[1]; second hour,87%
same,Percentage of cells labeled with 2-NBDG,[1]; third hour,96%
same,Time to complete reduction of resazurin,[2],3 to 4 h
same,Survival of cells coexpressing MazF and the peptide under ciprofloxacin (result in words),[3],almost eradicated after only 1 h
same,Oxygen consumption rate after mazF induction,[4],20 pmol/s
